Paper PMC9948168, “Vanillin-Based Indolin-2-one Derivative Bearing a Pyridyl Moiety as a Promising Anti-Breast Cancer Agent via Anti-Estrogenic Activity” (ACS Omega, 2023)

Columns and labels:
Test in all cases: NCI-60 one-dose screening
Format in all cases: cell-based
OVCAR-8 = details: Homo sapiens, OVCAR-8, Ovarian Cancer, read-out: GI (%)
786-0 = details: Homo sapiens, 786-0, Renal Cancer, read-out: GI (%)
HOP-62 = details: Homo sapiens, HOP-62, Non-Small Cell Lung Cancer, read-out: GI (%)
SK-MEL-2 = details: Homo sapiens, SK-MEL-2, Melanoma, read-out: GI (%)
CAKI-1 = details: Homo sapiens, CAKI-1, Renal Cancer, read-out: GI (%)
RXF 393 = details: Homo sapiens, RXF 393, Renal Cancer, read-out: GI (%)
M14 = details: Homo sapiens, M14, Melanoma, read-out: GI (%)
MCF7 = details: Homo sapiens, MCF7, 10 μM; MCF7, Breast Cancer; read-out: GI (%)
A549/ATCC = details: Homo sapiens, Non-Small Cell Lung Cancer, read-out: GI (%)
COLO 205 = details: Homo sapiens, COLO 205, Colon Cancer, read-out: GI (%)
T-47D = details: Homo sapiens, T47D, Breast Cancer, read-out: GI (%)
SNB-19 = details: Homo sapiens, SNB-19, CNS Cancer, read-out: GI (%)
MOLT-4 = details: Homo sapiens, MOLT-4, Leukemias, read-out: GI (%)
OVCAR-3 = details: Homo sapiens, OVCAR-3, 10 μM; OVCAR-3, Ovarian Cancer; read-out: GI (%)
SF-295 = details: Homo sapiens, SF-295, CNS Cancer, read-out: GI (%)
K-562 = details: Homo sapiens, K562, K-562, Leukemias, read-out: GI (%)
ACHN = details: Homo sapiens, Renal Cancer, read-out: GI (%)
MDA-MB-468 = details: Homo sapiens, MDA-MB-468, Breast Cancer, read-out: GI (%)
U251 = details: Homo sapiens, U-251, U251, CNS Cancer, read-out: GI (%)
HL-60(TB) = details: Homo sapiens, Leukemias, read-out: GI (%)
TK-10 = details: Homo sapiens, TK-10, Renal Cancer, read-out: GI (%)
LOX IMVI = details: Homo sapiens, Melanoma, read-out: GI (%)
MDA-MB-231/ATCC = details: Homo sapiens, Breast Cancer, read-out: GI (%)
SNB-75 = details: Homo sapiens, SNB-75, CNS Cancer, read-out: GI (%)
HCC-2998 = details: Homo sapiens, HCC-2998, Colon Cancer, read-out: GI (%)

Compound: COc1cc(C=C2C(=O)Nc3ccc(Cl)cc32)ccc1OCc1ccccn1 (mixture of isomers) [6j]
- inhibition at 10 µM (OVCAR-8): 3.83%
- inhibition at 10 µM (786-0): -1.2%
- inhibition at 10 µM (HOP-62): 5.56%
- inhibition at 10 µM (SK-MEL-2): -9.33%
- inhibition at 10 µM (CAKI-1): 24.4%
- inhibition at 10 µM (RXF 393): -0.84%
- inhibition at 10 µM (M14): -0.51%
- inhibition at 10 µM (MCF7): 63%
- inhibition at 10 µM (A549/ATCC): -2.5%
- inhibition at 10 µM (COLO 205): -10.1%
- inhibition at 10 µM (T-47D): 9.54%
- inhibition at 10 µM (SNB-19): 8.13%
- inhibition at 10 µM (MOLT-4): 4.33%
- inhibition at 10 µM (OVCAR-3): 7.98%
- inhibition at 10 µM (SF-295): 6.2%
- inhibition at 10 µM (K-562): 5.33%
- inhibition at 10 µM (ACHN): 3.24%
- inhibition at 10 µM (MDA-MB-468): 14.6%
- inhibition at 10 µM (U251): 5.39%
- inhibition at 10 µM (HL-60(TB)): 3.78%
- inhibition at 10 µM (TK-10): -46.6%
- inhibition at 10 µM (LOX IMVI): 14.8%
- inhibition at 10 µM (MDA-MB-231/ATCC): 4.62%
- inhibition at 10 µM (SNB-75): 14.8%
- inhibition at 10 µM (HCC-2998): -6.73%

Compound: COc1cc(/C=C2/C(=O)Nc3cc(Cl)ccc32)ccc1O [5c]
- inhibition at 10 µM (OVCAR-8): 13%
- inhibition at 10 µM (786-0): 2.08%
- inhibition at 10 µM (HOP-62): 29.2%
- inhibition at 10 µM (SK-MEL-2): 7.35%
- inhibition at 10 µM (CAKI-1): 31.6%
- inhibition at 10 µM (RXF 393): 6.84%
- inhibition at 10 µM (M14): 21.2%
- inhibition at 10 µM (MCF7): 54.4%
- inhibition at 10 µM (A549/ATCC): 5.44%
- inhibition at 10 µM (COLO 205): -7.08%
- inhibition at 10 µM (T-47D): 49.2%
- inhibition at 10 µM (SNB-19): 24.6%
- inhibition at 10 µM (MOLT-4): 27.9%
- inhibition at 10 µM (OVCAR-3): 25.8%
- inhibition at 10 µM (SF-295): 15.8%
- inhibition at 10 µM (K-562): 19.6%
- inhibition at 10 µM (ACHN): 23.6%
- inhibition at 10 µM (MDA-MB-468): 28.5%
- inhibition at 10 µM (U251): 33.5%
- inhibition at 10 µM (HL-60(TB)): 13.9%
- inhibition at 10 µM (TK-10): -60.3%
- inhibition at 10 µM (LOX IMVI): 22.7%
- inhibition at 10 µM (MDA-MB-231/ATCC): 50.8%
- inhibition at 10 µM (SNB-75): 59.5%
- inhibition at 10 µM (HCC-2998): 0.25%

Compound: COc1cc(/C=C2/C(=O)Nc3ccc(Cl)cc32)ccc1OCc1ccccc1 [6f]
- inhibition at 10 µM (OVCAR-8): -6.25%
- inhibition at 10 µM (786-0): -3.53%
- inhibition at 10 µM (HOP-62): 6.15%
- inhibition at 10 µM (SK-MEL-2): -0.03%
- inhibition at 10 µM (CAKI-1): 7.2%
- inhibition at 10 µM (RXF 393): -11.6%
- inhibition at 10 µM (M14): 0.98%
- inhibition at 10 µM (MCF7): 19.2%
- inhibition at 10 µM (A549/ATCC): -0.72%
- inhibition at 10 µM (COLO 205): -7.79%
- inhibition at 10 µM (T-47D): 5.17%
- inhibition at 10 µM (SNB-19): 3.8%
- inhibition at 10 µM (MOLT-4): 3.2%
- inhibition at 10 µM (OVCAR-3): -6.72%
- inhibition at 10 µM (SF-295): -0.63%
- inhibition at 10 µM (K-562): -8.73%
- inhibition at 10 µM (ACHN): 3.68%
- inhibition at 10 µM (MDA-MB-468): 5.59%
- inhibition at 10 µM (U251): 2.36%
- inhibition at 10 µM (HL-60(TB)): 0.49%
- inhibition at 10 µM (TK-10): -15.1%
- inhibition at 10 µM (LOX IMVI): -3.97%
- inhibition at 10 µM (MDA-MB-231/ATCC): 7.87%
- inhibition at 10 µM (SNB-75): 7.95%
- inhibition at 10 µM (HCC-2998): -7.18%

Compound: COc1ccc(COc2ccc(/C=C3/C(=O)Nc4ccc(Cl)cc43)cc2OC)cc1 [6i]
- inhibition at 10 µM (OVCAR-8): 1.18%
- inhibition at 10 µM (786-0): 0.79%
- inhibition at 10 µM (HOP-62): 3.08%
- inhibition at 10 µM (SK-MEL-2): -5.26%
- inhibition at 10 µM (CAKI-1): 15.4%
- inhibition at 10 µM (RXF 393): -7.98%
- inhibition at 10 µM (M14): 0.06%
- inhibition at 10 µM (MCF7): 22.3%
- inhibition at 10 µM (A549/ATCC): -1.42%
- inhibition at 10 µM (COLO 205): -10.1%
- inhibition at 10 µM (T-47D): -5.11%
- inhibition at 10 µM (SNB-19): 2.61%
- inhibition at 10 µM (MOLT-4): 4.03%
- inhibition at 10 µM (OVCAR-3): -1.86%
- inhibition at 10 µM (SF-295): -0.88%
- inhibition at 10 µM (K-562): 6.52%
- inhibition at 10 µM (ACHN): 5.13%
- inhibition at 10 µM (MDA-MB-468): 5.64%
- inhibition at 10 µM (U251): -2.19%
- inhibition at 10 µM (HL-60(TB)): 0.37%
- inhibition at 10 µM (TK-10): -18.4%
- inhibition at 10 µM (LOX IMVI): 5.6%
- inhibition at 10 µM (MDA-MB-231/ATCC): -0.06%
- inhibition at 10 µM (SNB-75): 11%
- inhibition at 10 µM (HCC-2998): -4.23%
